In US20230236206A1, “PREDICTING A SEPSIS CONDITION” (PHARM-ANALYT LABOR GMBH, priority 2020, published 2023):

Experiment: Hydrophilicity of BM1
Type: physicochemical

- Hydrophilicity: very hydrophilic
SMILES: C[C@@H](O)[C@H](NC(=O)Nc1ncnc2c1ncn2[C@@H]1O[C@H](CO)C(O)C1O)C(=O)O (stereo partly drawn) [BM1, N6-Carbamoylthreonyl-D-adenosine]
